# Reference: patent US7005425B2, “Method for treating arrhythmias” (CV Therapeutics, Inc., priority 2002, dated 2006)
# Experiments:
# [1] = tested on: anesthetized guinea pigs; assay: PR interval (AV nodal conduction) in anesthetized, paced guinea pigs; assay type: in vivo; settings: metoprolol 0.1 mg/kg iv bolus
# Excerpt: Male guinea pigs weighing 400–450 gm were obtained from Simonsen labs and housed in the institutional laboratory animal facility. Animals were anesthetized with isoflurane in the anesthetizing chamber. After determining (by toe pinch) that the animal is adequately anesthetized, the animals was intubated with an endotracheal tube and ventilated with isoflurane and oxygen mixture using anesthesia workstation. Using sterile equipment and aseptic technique, the right carotid artery was exposed and a catheter inserted for recording of blood pressure (BP). A quadripolar electrode catheter was introduced via the right jugular vein and positioned in the right atrium and ventricle for atrial and ventricular pacing. The hearts were paced at a constant rate (330–360 bpm) to eliminate the effect of heart rate variability between animals. Another catheter was inserted into the left jugular vein and positioned in the right atrium for the administration of drugs and saline. Subcutaneous needles were used as standard electrocardiographic leads to record the electrocardiogram (ECG). After completion of surgery and instrumentation, a 20 min equilibration period was allowed before beginning the experimental protocol. […] When the two agents were given in combination the PR interval was increased up to 15 msec. […] Esmolol was administered at three different infusion rates. […]
# [2] = tested on: awake rats; assay: Telemetry studies of heart rate in awake rats; assay type: in vivo, Rats (Sprague Dawley)
# Method: Rats (Sprague Dawley) weighing 300–400 gms were purchased from Simonsen laboratories. CVT-3619 was dissolved in DMSO and further diluted in saline. CVT-510 was dissolved in saline. Ketamine was purchased from Fort Dodge Animal Health, Xylazine from Bayer and Acepromazine Maleate from Fermenta Animal Health Co. Metoprolol and propranolol were purchased from SIGMA. Esmolol was obtained from a local pharmacy.
# For these studies, rats were instrumented with radiotelemetered transmitters (Data Sciences) at least 3 weeks prior to experimentation. Animals were anesthetized by peritoneal injection of a “cocktail” (1 ml/kg) containing Ketamine (75 mg/ml), Xylazine (5 mg/ml), and Acepromazine (1 mg/ml). After 20–30 minutes of induction of anesthesia, a midline laparotomy was performed. The transmitter for recordings of ECG, blood pressure and body temperature was placed in the abdominal cavity, and secured to the abdominal muscles. Two electrocardiographic leads were tunneled through the subcutaneous—one toward the upper left shoulder and the other to the right thigh, and secured with sutures. A fluid filled sensor catheter was inserted in the descending aorta above the iliac bifurcation for measurement of blood pressure. The tip of the telemetry catheter was located in the abdominal aorta just caudal to the renal arteries. Once the transmitter and leads were in place and determined to be functioning properly, the abdominal wall was sutured. After recovery from anesthesia, the rats were housed individually in cages placed on their respective receivers. The ECG, blood pressure and temperature were recorded and heart rate measured by a Dataquest ART Gold system (Version 2.2; Data Sciences Intl). The system consisted of a transmitter, i.e., biopotential sensor (Model TL11M2-C50-PXT), receivers (Model RPC-1), a consolidation matrix (BCM 100), a personal computer (Compaq DeskPro Series 3574) and Dataquest 4 software. Heart rate, blood pressure and temperature were measured at 5-minute intervals. Each recording lasted 10 seconds and all cardiac cycles within this period were averaged. Animals were given various drugs in a randomized manner after recording the baseline data for at least two hours.
# A subgroup of animals was implanted with osmotic pumps containing CVT-510 for combination experiments. […]
# The slowing of heart rate caused by each treatment was quantified by determining the area under the curve (AUC), using the trapezoidal method for calculations. Data used for analysis was the area under/over the curve calculated using change form baseline data (untreated animals). The data was analyzed for the magnitude as well as the duration of bradycardia caused by each treatment. […]
# [3] = cited from earlier work
smiles,measurement,setting,value
"COCCc1ccc(OCC(O)CNC(C)C)cc1 (stereo not shown) [metoprolol, reference compound]",increase of PR interval (FIG. 9),[1],5 ms
"O[C@@H]1[C@@H](CSc2ccccc2F)OC(n2cnc3c(N[C@@H]4CCC[C@H]4O)ncnc32)[C@@H]1O (stereo partly drawn) [CVT-3619, 2-{6-[((1R,2R)-2-hydroxycyclopentyl)amino]purin-9-yl}(4S,5S,3R)-5-[(2-fluorophenylthio)methyl]oxolane-3,4-diol]",effect on heart rate (FIG. 1),[2]; CVT-3619 0.5 mg/kg ip alone,minimal effect on heart rate
"COC(=O)CCc1ccc(OCC(O)CNC(C)C)cc1 (stereo not shown) [esmolol, reference compound]",effect on heart rate (FIG. 3),"[2]; esmolol 10 mg/kg ip alone, heart rate increase caused by handling",only slightly reduces the increase in heart rate
Nc1ncnc2c1ncn2[C@@H]1O[C@H](CO)[C@@H](O)[C@H]1O [Adenosine],half-life,[3],~10 s
